Data as given in patent publication US6727253B2, “Treatment of accidental extravasation of anthracyclines” (Antianthra APS, priority 1999, dated 2004).
Like-named read-outs stand apart in the source and are kept apart here.

What was measured:
[1] = test system: SC idarubicin induced wounds in mice; details: for AUC / DW / FW / TTW: Table A
Experimental: The mice were euthanized after healing of all wounds.
[…] Half of the groups served a saline controls, whereas in the other half of the groups ICRF-187 250 mg/kg was administered IP at t=0.

[2] = test system: wound after doxorubicin SC in swine; assay: Pilot study on swine, doxorubicin SC; assay type: in vivo; details: 3 mg doxorubicin SC, ICRF-187 25 mg/kg IV at t=0
Experimental: (§1) A danish porker weighting approximately 30 kg was used. The animals were fully anesthesized and artificially ventilated during SC injection of 1 ml of anthracycline.

[3] = test system: wound after daunorubicin SC in swine; assay: Pilot study on swine, daunorubicin SC; assay type: in vivo; details: 1 ml daunorubicin SC
Experimental: as §1

[4] = Example 9, idarubicin 0.05 mg/kg sc + ICRF-187 250 mg/kg IP at t=0
[5] = Example 9, idarubicin 0.25 mg/kg sc + ICRF-187 250 mg/kg IP at t=0
[6] = Example 9, idarubicin 0.75 mg/kg sc + ICRF-187 250 mg/kg IP at t=0
[7] = idarubicin 0.05 mg/kg SC + DEX 250 mg/kg IP at t=0
[8] = idarubicin 0.25 mg/kg SC + DEX 250 mg/kg IP at t=0
[9] = idarubicin 0.75 mg/kg SC + DEX 250 mg/kg IP at t=0, pooled data
[10] = idarubicin 1.50 mg/kg SC + DEX 250 mg/kg IP at t=0

With C[C@@H](CN1CC(=O)NC(=O)C1)N1CC(=O)NC(=O)C1 [ICRF-187, (+)-1,2-bis(3,5-dioxopiperazinyl-1-yl)propane] the “Mean AUC” value [1, 4] was 4 mm^2 × days, the “Mean DWw ± SEM” value [1, 4] was 13.0 ± 0.0 days and the “Mean TTWw ± SEM” value [1, 4] was 12.0 ± 0.0 days. For the same molecule, the Nw/NG [1, 4] was 11%, the “Mean AUC” value [1, 5] was 38 mm^2 × days and the “Mean DWw ± SEM” value [1, 5] was 20.0 ± 0.0 days. The “Mean TTWw ± SEM” value [1, 5] was 6.0 ± 0.0 days, the Nw/NG [1, 5] was 11% and the “Mean AUC” value [1, 6] was 44 mm^2 × days. The “Mean DWw ± SEM” value [1, 6] was 17.5 ± 0.5 days, the “Mean TTWw ± SEM” value [1, 6] was 8.0 ± 0.0 days and the Nw/NG [1, 6] was 22%. The “reduction in the AUC” value ([1]; Example 9, idarubicin 0.75 mg/kg sc, ICRF-187 250 mg/kg IP vs saline, p<0.05) was 90%, the AUC [1, 7] was 4 (± 4) mm^2×days and the DW [1, 7] was 13.0 (± 0.0) days. The FW [1, 7] was 11%, the TTW [1, 7] was 12.0 (± 0.0) days and the AUC [1, 8] was 38 (± 38) mm^2×days. For the same molecule, the DW [1, 8] was 20.0 (± 0.0) days, the FW [1, 8] was 11% and the TTW [1, 8] was 6.0 (± 0.0) days. For the same molecule, the AUC [1, 9] was 42 (± 19) mm^2×days, the DW [1, 9] was 15.6 (± 2.7) days and the FW [1, 9] was 28%. For the same molecule, the TTW [1, 9] was 10.2 (± .5) days, the AUC [1, 10] was 183 (± 54) mm^2×days and the DW [1, 10] was 17.8 (± 0.9) days. The FW [1, 10] was 75%, the TTW [1, 10] was 7.7 (± 0.2) days and the “deaths due to the treatment” value ([1]; mouse, in vivo) was “no deaths due to the treatment”. For the same molecule, the ulcer development [2] was “did not develope an ulcer”, the wound appearance ([3]; ICRF-187 25 mg/kg IV daily for three days) was “no wound appeared” and the wound appearance ([3]; ICRF-187 50 mg/kg IV at t=0) was “a small wound appeared”.
